Experimental data reported in US10336762B2 (priority 2017, dated 2019).

What was measured:
[1] = target: IRAK4 enzyme (Homo sapiens (Human), UniProt Q9NWZ3); experiment: biochemical; type: biochemical; settings: IRAK4 enzyme, TR-FRET (HTRF), 500 μM ATP
[2] = test system: TNFα; experiment: cells; type: cell-based, human; settings: Homo sapiens, Monocyte, LPS-stimulated human monocytes, TNFα content; read-out: EC50 TNF

Sequence of IRAK4 enzyme (Q9NWZ3 whole entry): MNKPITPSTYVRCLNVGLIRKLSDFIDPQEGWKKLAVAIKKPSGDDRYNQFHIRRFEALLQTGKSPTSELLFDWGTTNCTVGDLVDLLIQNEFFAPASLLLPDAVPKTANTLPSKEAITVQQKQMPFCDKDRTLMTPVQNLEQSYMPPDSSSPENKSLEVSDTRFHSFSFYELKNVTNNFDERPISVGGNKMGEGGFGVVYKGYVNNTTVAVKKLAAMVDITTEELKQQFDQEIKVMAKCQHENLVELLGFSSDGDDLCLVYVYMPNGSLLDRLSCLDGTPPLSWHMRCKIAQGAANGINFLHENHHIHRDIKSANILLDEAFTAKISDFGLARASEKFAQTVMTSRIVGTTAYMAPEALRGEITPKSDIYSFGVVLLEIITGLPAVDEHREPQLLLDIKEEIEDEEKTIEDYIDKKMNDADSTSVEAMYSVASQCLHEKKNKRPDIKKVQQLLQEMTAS

Compound	IC50 [1] [nM]	EC50 [2] [nM]
COc1ccc(Nc2cc(-c3ccc4cc(C#N)cnn34)ncc2C(=O)NC[C@@H](F)C(C)(C)O)cc1 [Example 609, (R)-6-(3-cyanopyrrolo[1,2-b]pyridazin-7-yl)-N-(2-fluoro-3-hydroxy-3-methylbutyl)-4-((4-methoxyphenyl)amino) nicotinamide]	< 1	35
CC(C)(O)[C@H](F)CNC(=O)c1cnc(-c2ccc3cc(C#N)cnn23)cc1Nc1cncc(C#N)c1 [Example 610, (R)-4-((5-cyanopyridin-3-yl)amino)-6-(3-cyano-pyrrolo[1,2-b]pyridazin-7-yl)-N-(2-fluoro-3-hydroxy-3-methylbutyl)nicotinamide]	< 1	50
COc1cc(Nc2cc(-c3ccc4cc(C#N)cnn34)ncc2C(=O)NC[C@@H](F)C(C)(C)O)ccc1C#N [Example 611, (R)-4-((4-cyano-3-methoxy-phenyl)amino)-6-(3-cyanopyrrolo[1,2-b]pyridazin-7-yl)-N-(2-fluoro-3-hydroxy-3-methylbutyl)nicotinamide]	15	> 10000
CC1(Nc2cc(-c3ccc4cc(C#N)cnn34)ncc2C(=O)NCC#N)COC1 [Example 612, N-(cyanomethyl)-6-(3-cyanopyrrolo[1,2-b]pyridazin-7-yl)-4-((3-methyloxetan-3-yl)amino)nicotinamide]	< 1	51
COC(=O)NC[C@H]1C[C@H](Nc2cc(-c3ccc4cc(C#N)cnn34)ncc2C(=O)NCC#N)C1 [Example 613, methyl (((1r,3r)-3-((5-((cyanomethyl)carbamoyl)-2-(3-cyanopyrrolo[1,2-b]pyridazin-7-yl)pyridin-4-yl)amino)cyclobutyl)methyl)carbamate]	< 1	15
CC(C)(O)[C@H](F)CNC(=O)c1cnc(-c2ccc3cc(C#N)cnn23)cc1N[C@H]1C[C@H](CNC(=O)C2CCO2)C1 (stereo partly shown) [Example 614]	2	156
COC(=O)N[C@H]1C[C@H](CNc2cc(-c3ccc4cc(C#N)cnn34)ncc2C(=O)NC[C@@H](F)C(C)(C)O)C1 [Example 615, methyl ((1R,3r)-3-(((2-(3-cyanopyrrolo[1,2-b]pyridazin-7-yl)-5-(((R)-2-fluoro-3-hydroxy-3-methylbutyl)carbamoyl)pyridin-4-yl)amino)methyl)cyclobutyl)carbamate]	< 1	46
N#Cc1cnn2c(-c3cc(NC45CCC(O)(CC4)CC5)c(C(=O)NCC4CCO4)cn3)ccc2c1 (stereo not shown) [Example 616, 6-(3-cyanopyrrolo[1,2-b]pyridazin-7-yl)-4-((4-hydroxybicyclo[2.2.2]octan-1-yl)amino)-N-(oxetan-2-ylmethyl) nicotinamide]	2	144
N#Cc1cnn2c(-c3cc(NC45CCC(O)(CC4)CC5)c(C(=O)NCC4COC4)cn3)ccc2c1 [Example 617, 6-(3-cyanopyrrolo[1,2-b]pyridazin-7-yl)-4-((4-hydroxybicyclo[2.2.2]octan-1-yl)amino)-N-(oxetan-3-ylmethyl) nicotinamide]	2	144
COC(=O)N[C@]1(C)CC[C@@H](Nc2cc(-c3ccc4cc(C#N)cnn34)ncc2C(=O)NC[C@@H](F)C(C)(C)O)CC1 [Example 618, methyl ((1R,4r)-4-((2-(3-cyanopyrrolo[1,2-b]pyridazin-7-yl)-5-(((R)-2-fluoro-3-hydroxy-3-methylbutyl)carbamoyl)pyridin-4-yl)amino)-1-methylcyclohexyl) carbamate]	4	335
COC(=O)N[C@]1(C)CC[C@H](Nc2cc(-c3ccc4cc(C#N)cnn34)ncc2C(=O)NC[C@@H](F)C(C)(C)O)CC1 [Example 619, methyl ((1S,4s)-4-((2-(3-cyanopyrrolo[1,2-b]pyridazin-7-yl)-5-(((R)-2-fluoro-3-hydroxy-3-methylbutyl)carbamoyl)pyridin-4-yl)amino)-1-methylcyclohexyl) carbamate]	3	168
COC(=O)N(C)C[C@H]1C[C@H](Nc2cc(-c3ccc4cc(C#N)cnn34)ncc2C(=O)NC[C@@H](F)C(C)(C)O)C1 [Example 620, Methyl (((1R,3r)-3-((2-(3-cyanopyrrolo[1,2-b]pyridazin-7-yl)-5-(((R)-2-fluoro-3-hydroxy-3-methylbutyl)carbamoyl)pyridin-4-yl)amino)cyclobutyl)methyl)(methyl)carbamate]	1	54
N#Cc1cnn2c(-c3cc(NC45CCC(O)(CC4)CC5)c(C(=O)NCc4ncco4)cn3)ccc2c1 [Example 621, 6-(3-cyanopyrrolo[1,2-b]pyridazin-7-yl)-4-((4-hydroxybicyclo[2.2.2]octan-1-yl)amino)-N-(oxazol-2-ylmethyl) nicotinamide]	1	98
CC(C)(O)c1coc(CNC(=O)c2cnc(-c3ccc4cc(C#N)cnn34)cc2NC23CCC(O)(CC2)CC3)n1 [Example 622, 6-(3-cyanopyrrolo[1,2-b]pyridazin-7-yl)-4-((4-hydroxybicyclo[2.2.2]octan-1-yl)amino)-N-((4-(2-hydroxypropan-2-yl)oxazol-2-yl)methyl)nicotinamide]	2	407
C#CCNC(=O)c1cnc(-c2ccc3cc(C#N)cnn23)cc1NC12CCC(O)(CC1)CC2 [Example 623, 6-(3-cyanopyrrolo[1,2-b]pyridazin-7-yl)-4-((4-hydroxybicyclo[2.2.2]octan-1-yl)amino)-N-(prop-2-yn-1-yl) nicotinamide]	< 1	63
N#Cc1cnn2c(-c3cc(NC45CCC(O)(CC4)CC5)c(C(=O)NCc4ccc[nH]c4=O)cn3)ccc2c1 [Example 624, 6-(3-cyanopyrrolo[1,2-b]pyridazin-7-yl)-4-((4-hydroxybicyclo[2.2.2]octan-1-yl)amino)-N-((2-oxo-1,2-dihydro-pyridin-3-yl)methyl) nicotinamide]	3	1640
CC(C)(O)[C@H](F)CNC(=O)c1cnc(-c2ccc3cc(C#N)cnn23)cc1Nc1ccc(-c2cnco2)nc1 [Example 625, (R)-6-(3-cyanopyrrolo[1,2-b]pyridazin-7-yl)-N-(2-fluoro-3-hydroxy-3-methylbutyl)-4-((6-(oxazol-5-yl)pyridin-3-yl)amino)nicotinamide]	< 1	22
N#Cc1cnn2c(-c3cc(NC4COC4)c(C(=O)NCC(=O)N4CC(F)(F)C4)cn3)ccc2c1 [Example 626, 6-(3-cyanopyrrolo[1,2-b]pyridazin-7-yl)-N-(2-(3,3-difluoroazetidin-1-yl)-2-oxoethyl)-4-(oxetan-3-ylamino)nicotinamide]	< 1	79
CC(C)(O)[C@H](F)CNC(=O)c1cnc(-c2ccc3cc(C#N)cnn23)cc1Nc1ccc(-c2nnco2)cc1 [Example 627, (R)-4-((4-(1,3,4-oxadiazol-2-yl)phenyl)amino)-6-(3-cyanopyrrolo[1,2-b]pyridazin-7-yl)-N-(2-fluoro-3-hydroxy-3-methylbutyl)nicotinamide]	< 1	30
CC(C)(O)[C@H](F)CNC(=O)c1cnc(-c2ccc3cc(C#N)cnn23)cc1Nc1ccc(-c2cocn2)cc1 [Example 628, (R)-6-(3-cyanopyrrolo[1,2-b]pyridazin-7-yl)-N-(2-fluoro-3-hydroxy-3-methyl-butyl)-4-((4-(oxazol-4-yl)phenyl)amino) nicotinamide]	< 1	26
Cc1ncoc1-c1ccc(Nc2cc(-c3ccc4cc(C#N)cnn34)ncc2C(=O)NC[C@@H](F)C(C)(C)O)cc1 [Example 629, (R)-6-(3-cyanopyrrolo[1,2-b]pyridazin-7-yl)-N-(2-fluoro-3-hydroxy-3-methylbutyl)-4-((4-(4-methyloxazol-5-yl)phenyl)amino)nicotinamide]	< 1	22
CC(C)(O)[C@H](F)CNC(=O)c1cnc(-c2ccc3cc(C#N)cnn23)cc1N[C@H]1CC[C@H](c2cnco2)CC1 [Example 630, 6-(3-cyanopyrrolo[1,2-b]pyridazin-7-yl)-N-((R)-2-fluoro-3-hydroxy-3-methylbutyl)-4-(((1r,4R)-4-(oxazol-5-yl)cyclohexyl)amino)nicotinamide]	< 1	9
Cc1ncoc1[C@H]1CC[C@H](Nc2cc(-c3ccc4cc(C#N)cnn34)ncc2C(=O)NC[C@@H](F)C(C)(C)O)CC1 [Example 631, 6-(3-cyanopyrrolo[1,2-b]pyridazin-7-yl)-N-((R)-2-fluoro-3-hydroxy-3-methylbutyl)-4-(((1r,4R)-4-(4-methyloxazol-5-yl)cyclohexyl)amino) nicotinamide]	2	21
Cc1ncoc1-c1ccc(Nc2cc(-c3ccc4cc(C#N)cnn34)ncc2C(=O)NC[C@@H](F)C(C)(C)O)cn1 [Example 632, (R)-6-(3-cyanopyrrolo[1,2-b]pyridazin-7-yl)-N-(2-fluoro-3-hydroxy-3-methylbutyl)-4-((6-(4-methyloxazol-5-yl)pyridin-3-yl)amino) nicotinamide]	< 1	28
CC(C)(O)[C@H](F)CNC(=O)c1cnc(-c2ccc3cc(C#N)cnn23)cc1NC12CCC(c3cnco3)(CC1)OC2 [Example 633, (R)-6-(3-cyanopyrrolo[1,2-b]pyridazin-7-yl)-N-(2-fluoro-3-hydroxy-3-methylbutyl)-4-((1-(oxazol-5-yl)-2-oxabicyclo[2.2.2]octan-4-yl)amino) nicotinamide]	< 1	2
Cc1ncoc1C12CCC(Nc3cc(-c4ccc5cc(C#N)cnn45)ncc3C(=O)NC[C@@H](F)C(C)(C)O)(CC1)CO2 [Example 634, (R)-6-(3-cyanopyrrolo[1,2-b]pyridazin-7-yl)-N-(2-fluoro-3-hydroxy-3-methylbutyl)-4-((1-(4-methyloxazol-5-yl)-2-oxabicyclo[2.2.2]octan-4-yl)amino)nicotinamide]	< 1	7
